Laboratory results from patent publication US20090018151A1, “Topical Treatment of Peripheral diabetic complications” (priority 2007, published 2009).

Test system: diabetic neuropathy
Experiment: action of minoxidil on diabetic neuropathy (one foot minoxidil, other foot placebo, blinded)
Format: in vivo, human
Excerpt: Example: action of minoxidil on diabetic neuropathy. A subject with a history of type II diabetes and painful symmetric diabetic neuropathy with stable blood sugars for at least 4 weeks prior to beginning therapy had minoxidil applied to one foot and placebo applied to the other foot in a blinded fashion. […] They had not taken any other pain medication 3 months prior to initiating treatment and during treatment. They also had significant skin dryness. Within 2 weeks the subject reported a VAS score improvement of 3 on the foot with the minoxidil treatment.

`Nc1cc(N2CCCCC2)nc(N)[n+]1[O-]` [minoxidil, 6-(1-piperidinyl)pyrimidine-2,4-diamine 3-oxide] was tested, and the Re-growth of hair (foot treated with minoxidil vs placebo foot, subject had hair loss on the feet up to mid-calf) was “Re-growth of hair was found on the side treated with minoxidil only”, the “Improvement of the dryness of the skin” value (foot treated with minoxidil vs placebo foot, subject had significant skin dryness) was “Improvement of the dryness of the skin was also noted on the side treated with minoxidil only” and the VAS score improvement (person, type II diabetes, painful symmetric diabetic neuropathy, minoxidil applied to one foot, within 2 weeks) was 3.
